Assay results from patent US10988466B2, “Heterocyclic derivatives useful as SHP2 inhibitors” (Jacobio Pharmaceuticals Co., Ltd., priority 2017, dated 2021).

biological target: T1, SHP2 (Homo sapiens, UniProt Q06124); experiment: biochemical; details: read-out: SHP2 inhibition (%)@0.1 μM
T1 sequence (Q06124 1-593): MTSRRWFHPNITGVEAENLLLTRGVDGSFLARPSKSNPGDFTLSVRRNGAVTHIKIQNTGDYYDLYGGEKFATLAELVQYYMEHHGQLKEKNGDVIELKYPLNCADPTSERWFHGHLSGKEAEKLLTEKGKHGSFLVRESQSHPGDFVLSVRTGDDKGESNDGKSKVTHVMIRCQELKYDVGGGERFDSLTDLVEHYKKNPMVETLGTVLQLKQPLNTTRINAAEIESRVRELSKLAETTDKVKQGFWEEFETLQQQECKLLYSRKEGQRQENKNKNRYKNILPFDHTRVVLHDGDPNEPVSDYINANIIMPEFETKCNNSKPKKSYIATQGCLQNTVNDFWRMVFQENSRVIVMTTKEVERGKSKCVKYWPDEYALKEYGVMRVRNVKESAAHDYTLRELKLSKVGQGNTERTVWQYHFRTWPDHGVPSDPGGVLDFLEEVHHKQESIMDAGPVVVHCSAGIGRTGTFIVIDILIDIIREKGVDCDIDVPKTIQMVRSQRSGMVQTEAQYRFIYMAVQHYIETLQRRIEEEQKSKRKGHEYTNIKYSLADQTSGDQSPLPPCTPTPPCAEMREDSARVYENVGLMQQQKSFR
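Further: compounds preincubated 30 min at room temperature in the assay mixture, activity referenced to a 0.5% (v/v) DMSO control taken as 100%, run in triplicate.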

Row | Structure (SMILES) | inhibition at 0.1 µM
1 | CC(=O)N1CC(F)(F)c2c(Sc3ncc(N4CCC5(CC4)Cc4ncccc4[C@H]5N)nc3N)cccc21 [Example 103, (S)-1-(4-((3-amino-5-(5-amino-5,7-dihydrospiro [cyclopenta[b]pyridine-6,4′-piperidin]-1′-yl)pyrazin-2-yl)thio)-3,3-difluoroindolin-1-yl) ethan-1-one] | 76%
2 | N[C@@H]1c2cccnc2CC12CCN(c1cnc(Sc3cnccc3Cl)cn1)CC2 [Example 106, (S)-1′-(5-((4-chloropyridin-3-yl)thio)pyrazin-2-yl)-5,7-dihydrospiro [cyclopenta[b]pyridine-6,4′-piperidin]-5-amine] | 82%
3 | Nc1nc(N2CCC3(CC2)Cc2ncccc2[C@H]3N)cnc1Sc1cnccc1Cl [Example 107, (S)-1′-(6-amino-5-((4-chloropyridin-3-yl)thio)pyrazin-2-yl)-5,7-dihydrospiro[cyclo-penta[b]pyridine-6,4′-piperidin]-5-amine] | 77%
4 | Nc1cnccc1Sc1cnc(N2CCC3(CC2)Cc2ncccc2[C@H]3N)cn1 [Example 108, (S)-1′-(5-((3-amino-pyridin-4-yl)thio)pyrazin-2-yl)-5,7-dihydrospiro [cyclopenta[b]pyridine-6,4′-piperidin]-5-amine] | 71%
5 | Nc1cnccc1Sc1ncc(N2CCC3(CC2)Cc2ncccc2[C@H]3N)nc1N [Example 109, (S)-1′-(6-amino-5-((3-aminopyridin-4-yl)thio)pyrazin-2-yl)-5,7-dihydrospiro[cyclo-penta[b]pyridine-6,4′-piperidin]-5-amine] | 71%
6 | N[C@@H]1c2cccnc2CC12CCN(c1cnc(Sc3c(Cl)cncc3Cl)cn1)CC2 [Example 110, (S)-1′-(5-((3,5-dichloropyridin-4-yl)thio)pyrazin-2-yl)-5,7-dihydrospiro [cyclopenta[b]pyridine-6,4′-piperidin]-5-amine] | 61%
7 | Nc1nc(N2CCC3(CC2)Cc2ncccc2[C@H]3N)cnc1Sc1c(Cl)cncc1Cl [Example 111, (S)-1′-(6-amino-5-((3,5-dichloro-pyridin-4-yl)thio)pyrazin-2-yl)-5,7-dihydrospiro [cyclopenta[b]pyridine-6,4′-piperidin]-5-amine] | 82%
8 | Nc1cc(Sc2ncc(N3CCC4(CC3)Cc3ncccc3[C@H]4N)nc2N)c(Cl)cn1 [Example 113, (S)-1′-(6-amino-5-((2-amino-5-chloropyridin-4-yl)thio)pyrazin-2-yl)-5,7-dihydrospiro [cyclopenta[b]pyridine-6,4′-piperidin]-5-amine] | 80%
9 | Nc1nc(N2CCC3(CC2)Cc2ncccc2[C@H]3N)cnc1Sc1cccnc1C(F)(F)F [Example 114, (S)-1′-(6-amino-5-((2-(trifluoro-methyl)pyridin-3-yl)thio)pyrazin-2-yl)-5,7-dihydrospiro [cyclopenta [b]pyridine-6,4′-piperidin]-5-amine] | 96%
10 | N[C@@H]1c2cccnc2CC12CCN(c1cnc(Sc3ccnc(F)c3Cl)cn1)CC2 [Example 115, (S)-1′-(5-((3-chloro-2-fluoropyridin-4-yl)thio)pyrazin-2-yl)-5,7-dihydrospiro [cyclopenta[b]pyridine-6,4′-piperidin]-5-amine] | 86%
11 | Nc1nc(N2CCC3(CC2)Cc2ncccc2[C@H]3N)cnc1Sc1ccnc(F)c1Cl [Example 116, (S)-1′-(6-amino-5-((3-chloro-2-fluoropyridin-4-yl)thio)pyrazin-2-yl)-5,7-dihydrospiro [cyclopenta[b]pyridine-6,4′-piperidin]-5-amine] | 79%
12 | N#Cc1ncccc1Sc1cnc(N2CCC3(CC2)Cc2ncccc2[C@H]3N)cn1 [Example 117, (S)-3-((5-(5-amino-5,7-dihydrospiro [cyclopenta[b]pyridine-6,4′-piperidin]-1′-yl)pyrazin-2-yl)thio) picolinonitrile] | 81%
13 | N#Cc1ncccc1Sc1ncc(N2CCC3(CC2)Cc2ncccc2[C@H]3N)nc1N [Example 118, (S)-3-((3-amino-5-(5-amino-5,7-dihydrospiro [cyclopenta[b]pyridine-6,4′-piperidin]-1′-yl)pyrazin-2-yl)thio)picolinonitrile] | 81%
14 | N[C@@H]1c2cccnc2CC12CCN(c1cnc(Sc3cc(Cl)ncc3C(F)(F)F)cn1)CC2 [Example 119, (S)-1′-(5-((2-chloro-5-(trifluoro-methyl)pyridin-4-yl)thio)pyrazin-2-yl)-5,7-dihydro-spiro[cyclopenta [b]pyridine-6,4′-piperidin]-5-amine] | 61%
15 | Nc1nc(N2CCC3(CC2)Cc2ncccc2[C@H]3N)cnc1Sc1cc(Cl)ncc1C(F)(F)F [Example 120, (S)-1′-(6-amino-5-((2-chloro-5-(trifluoromethyl)pyridin-4-yl)thio)pyrazin-2-yl)-5,7-dihydrospiro [cyclopenta[b]pyridine-6,4′-piperidin]-5-amine] | 87%
16 | Nc1nc(N2CCC3(CC2)Cc2ccccc2C3N)cnc1Sc1ccnc(N)c1Cl (centres unmarked) [Example 124, 1′-(6-amino-5-((2-amino-3-chloropyridin-4-yl)thio)pyrazin-2-yl)-1,3-dihydrospiro [indene-2,4′-piperidin]-1-amine] | 84%
17 | Nc1nccc(Sc2cnc(N3CCC4(CC3)Cc3ccccc3C4N)cn2)c1Cl (centres unmarked) [Example 125, 1′-(5-((2-amino-3-chloropyridin-4-yl)thio)pyrazin-2-yl)-1,3-dihydrospiro [indene-2,4′-piperidin]-1-amine] | 86%
18 | Nc1cccc(Sc2ncc(N3CCC4(CC3)Cc3ncccc3C4N)nc2N)c1Cl (centres unmarked) [Example 126, 1′-(6-amino-5-((3-amino-2-chlorophenyl)thio)pyrazin-2-yl)-5,7-dihydrospiro[cyclo-penta[b]pyridine-6,4′-piperidin]-5-amine] | 81%
19 | Nc1nc(N2CCC3(CC2)Cc2cnccc2C3N)cnc1Sc1ccnc(N)c1Cl (centres unmarked) [Example 127, 1′-(6-amino-5-((2-amino-3-chloropyridin-4-yl)thio)pyrazin-2-yl)-5,7-dihydrospiro [cyclopenta[c]pyridine-6,4′-piperidin]-5-amine] | 83%
20 | Nc1cccc(Sc2cnc(N3CCC4(CC3)Cc3ncccc3C4N)cn2)c1Cl (centres unmarked) [Example 128, 1′-(5-((3-amino-2-chlorophenyl)thio)pyrazin-2-yl)-5,7-dihydrospiro [cyclopenta[b]pyridine-6,4′-piperidin]-5-amine] | 84%
21 | Nc1nc(N2CCC3(CC2)Cc2cc(Br)ccc2C3N)cnc1Sc1ccnc(N)c1Cl (centres unmarked) [Example 129, 1′-(6-amino-5-((2-amino-3-chloropyridin-4-yl)thio)pyrazin-2-yl)-5-bromo-1,3-dihydro-spiro[indene-2,4′-piperidin]-1-amine] | 74%
22 | Nc1nc(N2CCC3(CC2)Cc2sc(Cl)nc2C3N)cnc1Sc1ccnc(N)c1Cl (centres unmarked) [Example 130, 1′-(6-amino-5-((2-amino-3-chloropyridin-4-yl)thio)pyrazin-2-yl)-2-chloro-4,6-dihydro-spiro[cyclopenta [d]thiazole-5,4′-piperidin]-4-amine] | 94%
23 | Nc1nccc(Sc2cnc(N3CCC4(CC3)Cc3sc(Cl)nc3C4N)cn2)c1Cl (centres unmarked) [Example 131, 1′-(5-((2-amino-3-chloropyridin-4-yl)thio)pyrazin-2-yl)-2-chloro-4,6-dihydrospiro [cyclopenta[d]thiazole-5,4′-piperidin]-4-amine] | 83%
